BindingDB's records for patent US10065961 (Ogeda, 2018)

Biological target: T1, Neuromedin-K receptor (Homo sapiens, UniProt P29371)
T1 sequence (P29371 whole entry): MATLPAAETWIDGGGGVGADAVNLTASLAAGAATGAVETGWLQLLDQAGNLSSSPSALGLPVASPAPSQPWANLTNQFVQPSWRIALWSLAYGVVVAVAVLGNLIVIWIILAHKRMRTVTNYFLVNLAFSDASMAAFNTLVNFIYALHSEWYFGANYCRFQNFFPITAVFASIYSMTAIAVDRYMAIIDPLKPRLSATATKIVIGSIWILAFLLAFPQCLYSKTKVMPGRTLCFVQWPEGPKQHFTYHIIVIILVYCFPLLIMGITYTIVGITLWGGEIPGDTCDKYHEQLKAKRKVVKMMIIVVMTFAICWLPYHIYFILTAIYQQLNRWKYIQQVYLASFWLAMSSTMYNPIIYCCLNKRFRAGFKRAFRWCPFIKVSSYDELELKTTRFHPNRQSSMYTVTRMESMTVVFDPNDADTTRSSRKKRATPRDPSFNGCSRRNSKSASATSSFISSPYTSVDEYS
Assay: Aequorin Assay with Human NK-3 Receptor

IC50: 51 nM
Compound: Cc1coc(-c2nnc3n2CCN[C@@H]3C)n1 [US10065961, Compound 27]
